Data from ChEMBL document CHEMBL3351500, “Fragment-based identification and optimization of a class of potent pyrrolo[2,1-f][1,2,4]triazine MAP4K4 inhibitors” (Bioorg Med Chem Lett, 2014).

What was measured:
Type in all cases: ADME, organism-based
[1] = Clearance in mouse plasma at 1 mg/kg, iv; set-up: dose 1 mg/kg, route intravenous
[2] = Volume of distribution at steady state in mouse plasma at 1 mg/kg, iv; set-up: dose 1 mg/kg, route intravenous; conditions: read-out: Vdss
[3] = Oral bioavailability in mouse plasma at 25 mg/kg

SMILES | clearance [1] [L/h/kg] | Vd [2] [L/kg] | bioavailability [3] [%]
CS(=O)(=O)c1ccc(-c2cc3c(Nc4ccncc4)ncnn3c2)cc1 | 1.5 | 1 | 6
CN1CCN(c2ccc(-c3cc4c(Nc5ccncc5)ncnn4c3)cn2)CC1 | 4.68 | 15 | –
CC(C)(O)Cn1cc(-c2ccc(-c3cc4c(Nc5ccncc5)ncnn4c3)cc2)cn1 | 1.32 | 2 | 16
